The subject of one series is MRSA (+). Kind of series: porfimer sodium aPDT, planktonic culture. The format is cell-based, methicillin-resistant Staphylococcus aureus. The note with it: 630 nm, 200 J/cm2, porfimer sodium 125 μg/mL. As to the method: (§1) Bacteria were routinely cultured using tryptic soy broth or agar at 37° C. in a 5% CO2 incubator. Bacteria were isolated and suspended with 0.9% NaCl to an Optical Density (OD) of 0.1 taken at 630 nm, to generate the inoculum used for either planktonic or biofilm assays.
(§2) Experiments using planktonic cultures were carried out using M. catarrhalis, as a standard for further comparisons and to determine the effective drug concentration, porfimer sodium incubation time and light dose parameters which would provide an effective cell kill at the level of 5-7 logs. Once determined the experiments were repeated for all other bacterial strains examined.
(§3) The colony forming units (CFU) per mL of the starting inoculum for every experiment was determined by dilution plating. […]
(§4) Bacteria were exposed to 630 nm laser light via a fiber optic with a lens affixed to the distal end to provide a uniform diverging light field. […] Power output of the laser was measured using a UDT/Gamma Scientific 371 optical power meter and an integrating sphere. […]
(§5) Biofilms were formed on glass coupons in culture dishes containing a bacterial inoculum for 48 hours under conditions specific to the strain. […] Power output of the laser was measured using a UDT/Gamma Scientific 371 optical power meter and an integrating sphere. […]

A further series concerns B. atrophaeus (+). Kind of series: porfimer sodium aPDT, planktonic culture. The format is cell-based, Bacillus atrophaeus. The note with it: 630 nm, 200 J/cm2, porfimer sodium 125 μg/mL. As to the method:
as §1, §2, §3, §4, §5

The subject of another series is P. gingivalis (−). Kind of series: porfimer sodium aPDT, planktonic culture. The format is cell-based, Porphyromonas gingivalis. To be noted: 630 nm, kill at 75 J/cm2 (light dose 50-100 J/cm2), porfimer sodium 150 μg/mL. As to the method:
as §1, §2, §3, §4, §5

The format of series [1] is in vivo, Yorkshire pigs. To be noted: abraded wounds, Example 3. The text has this: This study evaluated the antimicrobial activity and local safety of porfimer sodium when applied to abraded wounds in Yorkshire pigs.
On Day −2 of the study, pigs were anesthetized and the skin aseptically prepared. Superficial wounds were created using the tape strip method until punctate bleeding was observed. Also on Day −2, eight wounds per pig were inoculated with one of three bacterial cultures (Haemophilus influenza, Moraxella catarrhalis, or Staphylococcus aureus) at a concentration of 10^7-10^8 CFUs per mL. There were two control sites on each side. […] The wounds were covered, analgesia in the form of buprenorphine (IM, 0.03 mg/kg) was provided, and the animals were recovered from anesthesia.

A short description of series [2]: in vitro human skin permeation, flow through diffusion cell. It is filed as in vitro ADME. To be noted: 24 hours post application. On the procedure: A study was completed to show the ability of the formulation to deliver the drug into human skin in an in vitro setting, while retaining the API within the appropriate skin layers.
In this experiment, TEWL for each diffusion cell would was measured and recorded before test article applications. A range of not more than 25 g/m2/h will be acceptable for this study. An automated in-line flow through diffusion cell system (PermeGear Collector FC 33, Version 3.1) was used to assess drug in the skin permeation experiment. Test articles were uniformly dispensed onto the skin tissue surface using a positive displacement pipette, set to deliver 7.8 μL. The study was performed under dark environment and closed to ambient conditions. […] The swabs and the tape strips were analyzed upon request. […] The separated samples were placed in respective pre-weighed labelled vials and weight of tissues were recorded.
Epidermal and dermal samples were processed and homogenized while maintaining a dark environment using the following protocol: 500 μL of homogenizing mixture, Water: Acetonitrile, 1:1 (v/v), was added to the labelled tubes containing the skin samples. […] The following samples were analyzed for drug content: Receptor solution samples at different time-points; skin samples (epidermis and dermis for each cell at the final time point), tape strips and cotton swabs analyzed for mass balance determination. […]

As for porfimer sodium, the values for the Rate of kill with MRSA (+), with B. atrophaeus (+) and in the series on P. gingivalis (−) were above 6Log, 6Log and 7Log, respectively. For the same substance, in series [1], the “histopathological observations, treated sites vs control sites” value was “no significant difference between treated sites and control sites”. The “skin layer where porfimer sodium permeation was found” value in series [2] is recorded as “predominantly found in the epidermal layers of the skin”.
